Measurements: patent US8952024B2, “Herbicidal pyrimidone derivatives” (E I du Pont de Nemours and Company, priority 2009, dated 2015)

Columns and labels:
Format in all cases: in vivo
[1] = test system: barnyardgrass (Echinochloa crus-galli); experiment: Test A pre-/postemergence plant response; settings: for Barnyardgrass plant response rating: visual injury, 0 to 100 scale (0 no effect, 100 complete control), approx. ten days
Summary of the method: (§1)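 Injury was scored visually after roughly ten days against untreated controls, 0 = no effect, 100 = complete control. Test chemicals in a surfactant-containing non-phytotoxic solvent were sprayed either onto soil preemergence or onto one- to two-leaf, 2–10 cm plants postemergence.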

corn (Zea mays) = experiment: Test A pre-/postemergence plant response; settings: for Corn plant response rating: visual injury, 0 to 100 scale (0 no effect, 100 complete control), approx. ten days
Summary of the method: as §1

[2] = test system: giant foxtail (Setaria faberii); experiment: Test A pre-/postemergence plant response; settings: for Foxtail, Giant plant response rating: visual injury, 0 to 100 scale (0 no effect, 100 complete control), approx. ten days
Summary of the method: as §1

[3] = test system: large crabgrass (Digitaria sanguinalis); experiment: Test A pre-/postemergence plant response; settings: for Crabgrass, Large plant response rating: visual injury, 0 to 100 scale (0 no effect, 100 complete control), approx. ten days
Summary of the method: as §1

[4] = test system: morningglory (Ipomoea spp.); experiment: Test A pre-/postemergence plant response; settings: for Morningglory plant response rating: visual injury, 0 to 100 scale (0 no effect, 100 complete control), approx. ten days
Summary of the method: as §1

[5] = test system: pigweed (Amaranthus retroflexus); experiment: Test A pre-/postemergence plant response; settings: for Pigweed plant response rating: visual injury, 0 to 100 scale (0 no effect, 100 complete control), approx. ten days
Summary of the method: as §1

[6] = test system: velvetleaf (Abutilon theophrasti); experiment: Test A pre-/postemergence plant response; settings: for Velvetleaf plant response rating: visual injury, 0 to 100 scale (0 no effect, 100 complete control), approx. ten days
Summary of the method: as §1

[7] = test system: wheat (Triticum aestivum); experiment: Test A pre-/postemergence plant response; settings: for Wheat plant response rating: visual injury, 0 to 100 scale (0 no effect, 100 complete control), approx. ten days
Summary of the method: as §1

[8] = test system: canarygrass (Phalaris minor); experiment: Test B postemergence plant response; settings: Postemergence
Summary of the method: (§2)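 Plants grown in peat/vermiculite medium were sprayed postemergence at 2–18 cm height (1- to 4-leaf stage). After 13–15 days in the greenhouse, response was rated visually against untreated controls on a 0–100 scale (0 no effect, 100 complete control).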

[9] = test system: chickweed (Stellaria media); experiment: Test B postemergence plant response; settings: Postemergence
Summary of the method: as §2

[10] = test system: windgrass (Apera spica-venti); experiment: Test B postemergence plant response; settings: Postemergence
Summary of the method: as §2

[11] = test system: winter barley (Hordeum vulgare); experiment: Test B postemergence plant response; settings: Postemergence
Summary of the method: as §2

[12] = Postemergence, 125 g ai/ha, 0 to 100 scale where 0 is no effect and 100 is complete control
[13] = Preemergence, 125 g ai/ha, 0 to 100 scale, 0 = no effect, 100 = complete control
[14] = Preemergence, 500 g ai/ha, 0 to 100 scale, 0 = no effect, 100 = complete control
[15] = 31 g ai/ha, 0 to 100 scale (0 no effect, 100 complete control)
[16] = 62 g ai/ha, scale 0 to 100 (0 no effect, 100 complete control)
[17] = 125 g ai/ha, scale 0 to 100 (0 no effect, 100 complete control)
[18] = 250 g ai/ha, scale 0 to 100 (0 no effect, 100 complete control), 13 to 15 days

CCCn1c(-c2ccsc2)ncc(C(=O)C2=C(O)C3CCC(C3)C2=O)c1=O (stereo not drawn) [Compound 227]
Plant response rating, Barnyardgrass [1, 12]: 90
Barnyardgrass plant response rating ([1]; Postemergence, 500 g ai/ha): 90
Plant response rating, Barnyardgrass [1, 13]: 50
Plant response rating, Barnyardgrass [1, 14]: 100
Plant response rating, Corn (corn (Zea mays); [12]): 10
Corn plant response rating (corn (Zea mays); Postemergence, 500 g ai/ha): 60
Plant response rating, Corn (corn (Zea mays); [13]): 0
Plant response rating, Corn (corn (Zea mays); [14]): 10
Plant response rating, Foxtail, Giant [2, 12]: 90
Foxtail, Giant plant response rating ([2]; Postemergence, 500 g ai/ha): 90
Plant response rating, Foxtail, Giant [2, 13]: 40
Plant response rating, Foxtail, Giant [2, 14]: 80
Plant response rating, Crabgrass, Large [3, 12]: 90
Crabgrass, Large plant response rating ([3]; Postemergence, 500 g ai/ha): 100
Plant response rating, Crabgrass, Large [3, 13]: 90
Plant response rating, Crabgrass, Large [3, 14]: 100
Plant response rating, Morningglory [4, 12]: 100
Morningglory plant response rating ([4]; Postemergence, 500 g ai/ha): 100
Plant response rating, Morningglory [4, 13]: 50
Plant response rating, Morningglory [4, 14]: 80
Plant response rating, Pigweed [5, 12]: 100
Pigweed plant response rating ([5]; Postemergence, 500 g ai/ha): 100
Plant response rating, Pigweed [5, 13]: 80
Plant response rating, Pigweed [5, 14]: 100
Plant response rating, Velvetleaf [6, 12]: 100
Velvetleaf plant response rating ([6]; Postemergence, 500 g ai/ha): 100
Plant response rating, Velvetleaf [6, 13]: 90
Plant response rating, Velvetleaf [6, 14]: 100
Plant response rating, Wheat [7, 12]: 0
Wheat plant response rating ([7]; Postemergence, 500 g ai/ha): 0
Plant response rating, Wheat [7, 13]: 0
Plant response rating, Wheat [7, 14]: 10
Plant response rating, Canarygrass [8, 15]: 0
Plant response rating, Canarygrass [8, 16]: 0
Plant response rating, Canarygrass [8, 17]: 5
Plant response rating, Canarygrass [8, 18]: 10
Plant response rating, Chickweed [9, 15]: 65
Plant response rating, Chickweed [9, 16]: 75
Plant response rating, Chickweed [9, 17]: 80
Plant response rating, Chickweed [9, 18]: 90
Plant response rating, Windgrass [10, 15]: 0
Plant response rating, Windgrass [10, 16]: 30
Plant response rating, Windgrass [10, 18]: 50
Plant response rating, Barley [11, 15]: 0
Plant response rating, Barley [11, 16]: 5
Plant response rating, Barley [11, 17]: 5
Plant response rating, Barley [11, 18]: 30

COCCn1c(-c2ccsc2)ncc(C(=O)C2=C(O)C3CCC(C3)C2=O)c1=O (stereo not drawn) [Compound 228]
Plant response rating, Barnyardgrass [1, 12]: 90
Barnyardgrass plant response rating ([1]; Postemergence, 500 g ai/ha): 90
Plant response rating, Barnyardgrass [1, 13]: 40
Plant response rating, Barnyardgrass [1, 14]: 100
Plant response rating, Corn (corn (Zea mays); [12]): 50
Corn plant response rating (corn (Zea mays); Postemergence, 500 g ai/ha): 90
Plant response rating, Corn (corn (Zea mays); [13]): 0
Plant response rating, Corn (corn (Zea mays); [14]): 50
Plant response rating, Foxtail, Giant [2, 12]: 90
Foxtail, Giant plant response rating ([2]; Postemergence, 500 g ai/ha): 90
Plant response rating, Foxtail, Giant [2, 13]: 50
Plant response rating, Foxtail, Giant [2, 14]: 90
Plant response rating, Crabgrass, Large [3, 12]: 90
Crabgrass, Large plant response rating ([3]; Postemergence, 500 g ai/ha): 100
Plant response rating, Crabgrass, Large [3, 13]: 100
Plant response rating, Crabgrass, Large [3, 14]: 100
Plant response rating, Morningglory [4, 12]: 100
Morningglory plant response rating ([4]; Postemergence, 500 g ai/ha): 100
Plant response rating, Morningglory [4, 13]: 70
Plant response rating, Morningglory [4, 14]: 80
Plant response rating, Pigweed [5, 12]: 100
Pigweed plant response rating ([5]; Postemergence, 500 g ai/ha): 100
Plant response rating, Pigweed [5, 13]: 100
Plant response rating, Pigweed [5, 14]: 100
Plant response rating, Velvetleaf [6, 12]: 100
Velvetleaf plant response rating ([6]; Postemergence, 500 g ai/ha): 100
Plant response rating, Velvetleaf [6, 13]: 100
Plant response rating, Velvetleaf [6, 14]: 100
Plant response rating, Wheat [7, 12]: 0
Wheat plant response rating ([7]; Postemergence, 500 g ai/ha): 20
Plant response rating, Wheat [7, 13]: 0
Plant response rating, Wheat [7, 14]: 0
Plant response rating, Canarygrass [8, 15]: 0
Plant response rating, Canarygrass [8, 16]: 0
Plant response rating, Canarygrass [8, 17]: 5
Plant response rating, Canarygrass [8, 18]: 10
Plant response rating, Chickweed [9, 15]: 98
Plant response rating, Chickweed [9, 16]: 100
Plant response rating, Chickweed [9, 17]: 100
Plant response rating, Chickweed [9, 18]: 100
Plant response rating, Windgrass [10, 15]: 5
Plant response rating, Windgrass [10, 16]: 50
Plant response rating, Windgrass [10, 18]: 90
Plant response rating, Barley [11, 15]: 0
Plant response rating, Barley [11, 16]: 5
Plant response rating, Barley [11, 17]: 40
Plant response rating, Barley [11, 18]: 40

O=C(C1=C(O)C2CCC(C2)C1=O)c1cnc(-c2ccsc2)n(CC2CCCO2)c1=O (stereo not drawn) [Compound 229]
Plant response rating, Barnyardgrass [1, 12]: 90
Barnyardgrass plant response rating ([1]; Postemergence, 500 g ai/ha): 100
Plant response rating, Barnyardgrass [1, 13]: 0
Plant response rating, Barnyardgrass [1, 14]: 70
Plant response rating, Corn (corn (Zea mays); [12]): 0
Corn plant response rating (corn (Zea mays); Postemergence, 500 g ai/ha): 40
Plant response rating, Corn (corn (Zea mays); [13]): 0
Plant response rating, Corn (corn (Zea mays); [14]): 0
Plant response rating, Foxtail, Giant [2, 12]: 90
Foxtail, Giant plant response rating ([2]; Postemergence, 500 g ai/ha): 100
Plant response rating, Foxtail, Giant [2, 13]: 50
Plant response rating, Foxtail, Giant [2, 14]: 60
Plant response rating, Crabgrass, Large [3, 12]: 80
Crabgrass, Large plant response rating ([3]; Postemergence, 500 g ai/ha): 100
Plant response rating, Crabgrass, Large [3, 13]: 80
Plant response rating, Crabgrass, Large [3, 14]: 100
Plant response rating, Morningglory [4, 12]: 100
Morningglory plant response rating ([4]; Postemergence, 500 g ai/ha): 100
Plant response rating, Morningglory [4, 13]: 40
Plant response rating, Morningglory [4, 14]: 80
Plant response rating, Pigweed [5, 12]: 100
Pigweed plant response rating ([5]; Postemergence, 500 g ai/ha): 100
Plant response rating, Pigweed [5, 13]: 90
Plant response rating, Pigweed [5, 14]: 100
Plant response rating, Velvetleaf [6, 12]: 100
Velvetleaf plant response rating ([6]; Postemergence, 500 g ai/ha): 100
Plant response rating, Velvetleaf [6, 13]: 100
Plant response rating, Velvetleaf [6, 14]: 100
Plant response rating, Wheat [7, 12]: 0
Wheat plant response rating ([7]; Postemergence, 500 g ai/ha): 20
Plant response rating, Wheat [7, 13]: 0
Plant response rating, Wheat [7, 14]: 0
Plant response rating, Canarygrass [8, 15]: 5
Plant response rating, Canarygrass [8, 16]: 15
Plant response rating, Canarygrass [8, 17]: 50
Plant response rating, Canarygrass [8, 18]: 60
Plant response rating, Chickweed [9, 15]: 70
Plant response rating, Chickweed [9, 16]: 85
Plant response rating, Chickweed [9, 17]: 90
Plant response rating, Chickweed [9, 18]: 98
Plant response rating, Windgrass [10, 15]: 0
Plant response rating, Windgrass [10, 16]: 40
Plant response rating, Windgrass [10, 18]: 65
Plant response rating, Barley [11, 15]: 0
Plant response rating, Barley [11, 16]: 0
Plant response rating, Barley [11, 17]: 5
Plant response rating, Barley [11, 18]: 25
